Results taken from patent US20110160146A1, “Conjungation of Small Molecules to Octaarginine Transporters for Overcoming Multi-Drug Resistance” (National Institute of Health (NIH), priority 2008, published 2011).
Non-standard residues stand in square brackets, D forms with d. Residues, ends and D or L forms follow the SMILES beside them. *: point of attachment. Paclitaxel(2'-OCO(CH2)3S) = CC(=O)O[C@H]1C(=O)[C@@]2(C)[C@H]([C@H](OC(=O)c3ccccc3)[C@]3(O)C[C@H](OC(=O)[C@H](OC(=O)CCCS*)[C@@H](NC(=O)c4ccccc4)c4ccccc4)C(C)=C1C3(C)C)[C@]1(OC(C)=O)CO[C@@H]1C[C@@H]2O; X2 = CC(=O)O[C@H]1C(=O)[C@@]2(C)[C@H]([C@H](OC(=O)c3ccccc3)[C@]3(O)C[C@H](OC(=O)[C@H](OC(=O)OCCS*)[C@@H](NC(=O)c4ccccc4)c4ccccc4)C(C)=C1C3(C)C)[C@]1(OC(C)=O)CO[C@@H]1C[C@@H]2O; X1 = CC(=O)O[C@H]1C(=O)[C@]2(C)[C@@H](OC(=O)CCCS*)C[C@H]3OC[C@@]3(OC(C)=O)[C@H]2[C@H](OC(=O)c2ccccc2)[C@]2(O)C[C@H](OC(=O)[C@H](O)[C@@H](NC(=O)c3ccccc3)c3ccccc3)C(C)=C1C2(C)C; X3 = O=C(OCCCS*)Oc1ccc(-c2cn3c(=O)c(Cc4ccccc4)nc-3c(Cc3ccccc3)[nH]2)cc1

Experiments:
[1] = Hydrolytic stability (HBS, pH 7.4, 37° C.); assay type: physicochemical
Procedure: A conjugate in which a drug to be delivered and a transporter are linked by a specifically cleavable or specifically releasable linker will have a half-life. The term “half-life” in this context refers to the amount of time required for one half of the amount of conjugate to become dissociated to release the free drug. The “accelerated” (37° C.) hydrolytic half-lives of the conjugates ranged from 19 to 97 hours, extending well beyond the incubation times (≦20 minutes) used for cell assays. Stabilities of the conjugates as solids at room temperature extend for months. […] The half-life of a conjugate can be “tuned” or modified, according to the invention, as described below.
The “accelerated” (37° C.) hydrolytic half-lives of the tetra- and octaarginine conjugates ranged from 19 to 97 hours, extending well beyond the incubation times (s 20 minutes) used for cell assays. Stability as a solid at room temperature extends for months. […] The activities of various conjugate-linker combinations were evaluated using a panel of human cancer cells, leading to the identification of ester-linked conjugates 2a and 3a as preferred candidates (Table 2).

[2] = test system: MCF-7; assay: cells; settings: read-out: IC50 concentration; MCF-7; 20 min incubation, washed, 72 hr drug-free media
Procedure: (§1) After 72 hours, the cytotoxicity of the relevant compound was determined by an MTT based assay.
(§2) Cell Lines; SKOV-3 cells were obtained from ATCC; UCI-101 and UCI-107 cell lines were obtained from Drs. P. DiSaia and A. Manetta, University of California; MCF-7 and MCF-7-Pgp were obtained from Dr. D. Piwnica-Worms, Washington University; OVCA429, OVCA433 and the taxane resistant derivatives of these cells (OVCA429T, OVCA429TxT, OVCA433T and OVCA433TxT) were obtained from Dr. B. Sikic, Stanford University. All cells were grown in DMEM with 10% FBS.
(§3) Cell Cytotoxicity Assay. The cytotoxicity of relevant compounds was determined by IC50 assay. Cells were seeded overnight into 96-well plates, and then incubated with a serial dilution of the indicated compound for 20 min, before washing twice with fresh media, and incubation at 37° C. for 72 hr in drug-free media. The IC50 values were determined as the concentration of compound required to inhibit the viability of the cell layer by 50% relative to untreated, and cell-free control wells (100 and 0% viability respectively) determined from semi-logarithmic dose response curves. […] Bioluminescence was determined using an IVIS 50 system (Caliper Life Sciences, Alameda, Calif.). Each compound and dilution was tested in triplicate per experiment, with each experiment reproduced three times.

[3] = test system: OVCA 429; assay: cells; settings: read-out: IC50 concentration; OVCA 429; 20 min incubation, washed, 72 hr drug-free media
Procedure: as §1, §2, §3

[4] = test system: OVCA 433; assay: cells; settings: read-out: IC50 concentration; OVCA 433; 20 min incubation, washed, 72 hr drug-free media
Procedure: as §1, §2, §3

[5] = test system: SKOV-3; assay: cells; settings: read-out: IC50 concentration; SKOV-3; 20 min incubation, washed, 72 hr drug-free media
Procedure: as §1, §2, §3

[6] = test system: UCI-101 luc; assay: cells; settings: read-out: IC50 concentration; UCI-101 luc; 20 min incubation, washed, 72 hr drug-free media; MTT assay or luciferase activity
Procedure: as §1, §2, §3

[7] = test system: UCI-107 luc; assay: cells; settings: read-out: IC50 concentration; UCI-107 luc; 20 min incubation, washed, 72 hr drug-free media; MTT assay or luciferase activity
Procedure: as §1, §2, §3

[8] = test system: OVCA 429TxT; assay: cells; settings: read-out: IC50 concentration; OVCA 429TxT (taxotere selected); 20 min incubation, washed, 72 hr drug-free media
Procedure: as §1
(§4) Within the panel of human cancer cells, there were three sets of related sensitive and resistant cell lines, the latter based wholly or in part on Pgp-mediated efflux. These resistant lines were either created through stable transfection of MCF-7 cells with Pgp (MCF-7-Pgp), or by selection through exposure of OVCA429 and OVCA433 cells to taxol (OVCA429T and OVCA433T)^19 or taxotere (OVCA429TxT and OVCA433TxT), creating a complex MDR phenotype including Pgp upregulation.
as §2, §3

[9] = test system: OVCA 429T; assay: cells; settings: read-out: IC50 concentration; OVCA 429T (taxol resistant); 20 min incubation, washed, 72 hr drug-free media
Procedure: as §1, §4, §2, §3

[10] = test system: OVCA 433TxT; assay: cells; settings: read-out: IC50 concentration; OVCA 433TxT (taxotere selected); 20 min incubation, washed, 72 hr drug-free media
Procedure: as §1, §4, §2, §3

[11] = test system: OVCA 433T; assay: cells; settings: read-out: IC50 concentration; OVCA 433T (taxol resistant); 20 min incubation, washed, 72 hr drug-free media
Procedure: as §1, §4, §2, §3

[12] = test system: MCF-7-pgp; assay: Cell cytotoxicity assay (IC50), MCF-7-pgp; settings: read-out: IC50 concentration; MCF-7-pgp (Pgp transfected); 20 min incubation, washed, 72 hr drug-free media
Procedure: as §1, §4, §2, §3

[13] = test system: OVCA429 cells; assay: Cell cycle assay, OVCA429; assay type: cell-based, human; set-up: dose or concentration left out as unconfirmed; settings: analysis after 24 hr, 7-AAD flow cytometry
Procedure: FIG. 1. Mechanisms of action of octaarginine taxol conjugates. (a) Tubulin polymerization assay.
The percentage of cells in G2/M was recorded. Data from 3 separate experiments were combined.
Statistical significance was determined as p<0.05.

[14] = Procedure: FIG. 2. Effect of octaarginine (r8) conjugation on biodistribution of drug. […] (a) Representative image of treated mice at 40 min post injection. (b) Total signal per mouse at times post injection (average of two experiments).
Biolumninescence signal was determined at regular time points immediately after injection using an IVIS 200 system (Caliper Life Sciences, Alameda, Calif.).

Structure (SMILES): CC(=O)N[C@H](CSSCCCC(=O)O[C@@H](C(=O)O[C@H]1C[C@@]2(O)[C@@H](OC(=O)c3ccccc3)[C@@H]3[C@]4(OC(C)=O)CO[C@@H]4C[C@H](O)[C@@]3(C)C(=O)[C@H](OC(C)=O)C(=C1C)C2(C)C)[C@@H](NC(=O)c1ccccc1)c1ccccc1)C(=O)N[C@H](CCCNC(=N)N)C(=O)N[C@H](CCCNC(=N)N)C(=O)N[C@H](CCCNC(=N)N)C(=O)N[C@H](CCCNC(=N)N)C(=O)N[C@H](CCCNC(=N)N)C(=O)N[C@H](CCCNC(=N)N)C(=O)N[C@H](CCCNC(=N)N)C(=O)N[C@H](CCCNC(=N)N)C(N)=O [2a, Taxol C2′ ester octaarginine conjugate] (Ac-[dC](Paclitaxel(2'-OCO(CH2)3S))[dR][dR][dR][dR][dR][dR][dR][dR]-NH2)
- half-life [1]: 23 h
- IC50 [2]: 40 nM
- IC50 [3]: 42 nM
- IC50 [4]: 21 nM
- IC50 [5]: 11 nM
- IC50 [6]: 58 nM
- IC50 [7]: 92 nM
- IC50 [8]: 101 nM
- IC50 [9]: 420 nM
- IC50 [10]: 2980 nM
- IC50 [11]: 131 nM
- IC50 [12]: 151 nM

Structure (SMILES): CC(=O)N[C@H](CSSCCCC(=O)O[C@@H](C(=O)O[C@H]1C[C@@]2(O)[C@@H](OC(=O)c3ccccc3)[C@@H]3[C@]4(OC(C)=O)CO[C@@H]4C[C@H](O)[C@@]3(C)C(=O)[C@H](OC(C)=O)C(=C1C)C2(C)C)[C@@H](NC(=O)c1ccccc1)c1ccccc1)C(=O)N[C@H](CCCNC(=N)N)C(=O)N[C@H](CCCNC(=N)N)C(=O)N[C@H](CCCNC(=N)N)C(=O)N[C@H](CCCNC(=N)N)C(N)=O [2b, Taxol C2′ ester tetraarginine conjugate]
- half-life [1]: 19 h
- percentage of cells in the G2/M phase relative to taxol [13]: significantly greater percentage

Structure (SMILES): CC(=O)N[C@H](CSSCCCC(=O)O[C@H]1C[C@H]2OC[C@@]2(OC(C)=O)[C@H]2[C@H](OC(=O)c3ccccc3)[C@]3(O)C[C@H](OC(=O)[C@H](O)[C@@H](NC(=O)c4ccccc4)c4ccccc4)C(C)=C([C@@H](OC(C)=O)C(=O)[C@]12C)C3(C)C)C(=O)N[C@H](CCCNC(=N)N)C(=O)N[C@H](CCCNC(=N)N)C(=O)N[C@H](CCCNC(=N)N)C(=O)N[C@H](CCCNC(=N)N)C(=O)N[C@H](CCCNC(=N)N)C(=O)N[C@H](CCCNC(=N)N)C(=O)N[C@H](CCCNC(=N)N)C(=O)N[C@H](CCCNC(=N)N)C(N)=O [3a, Taxol C7 ester octaarginine conjugate] (Ac-[dC](X1)[dR][dR][dR][dR][dR][dR][dR][dR]-NH2)
- half-life [1]: 97 h
- IC50 [2]: 146 nM
- IC50 [3]: 125 nM
- IC50 [4]: 62 nM
- IC50 [5]: 24 nM
- IC50 [6]: 170 nM
- IC50 [7]: 233 nM
- IC50 [8]: 93 nM
- IC50 [9]: 225 nM
- IC50 [10]: 1280 nM
- IC50 [11]: 95 nM
- IC50 [12]: 83 nM

Structure (SMILES): CC(=O)N[C@H](CSSCCCC(=O)O[C@H]1C[C@H]2OC[C@@]2(OC(C)=O)[C@H]2[C@H](OC(=O)c3ccccc3)[C@]3(O)C[C@H](OC(=O)[C@H](O)[C@@H](NC(=O)c4ccccc4)c4ccccc4)C(C)=C([C@@H](OC(C)=O)C(=O)[C@]12C)C3(C)C)C(=O)N[C@H](CCCNC(=N)N)C(=O)N[C@H](CCCNC(=N)N)C(=O)N[C@H](CCCNC(=N)N)C(=O)N[C@H](CCCNC(=N)N)C(N)=O [3b, Taxol C7 ester tetraarginine conjugate]
- half-life [1]: 68 h

Structure (SMILES): CC(=O)N[C@H](CSSCCOC(=O)O[C@@H](C(=O)O[C@H]1C[C@@]2(O)[C@@H](OC(=O)c3ccccc3)[C@@H]3[C@]4(OC(C)=O)CO[C@@H]4C[C@H](O)[C@@]3(C)C(=O)[C@H](OC(C)=O)C(=C1C)C2(C)C)[C@@H](NC(=O)c1ccccc1)c1ccccc1)C(=O)N[C@H](CCCNC(=N)N)C(=O)N[C@H](CCCNC(=N)N)C(=O)N[C@H](CCCNC(=N)N)C(=O)N[C@H](CCCNC(=N)N)C(=O)N[C@H](CCCNC(=N)N)C(=O)N[C@H](CCCNC(=N)N)C(=O)N[C@H](CCCNC(=N)N)C(=O)N[C@H](CCCNC(=N)N)C(N)=O [4a, Taxol C2′ octaarginine conjugate] (Ac-[dC](X2)[dR][dR][dR][dR][dR][dR][dR][dR]-NH2)
- half-life [1]: 32 h

Structure (SMILES): CC(=O)N[C@H](CSSCCOC(=O)O[C@@H](C(=O)O[C@H]1C[C@@]2(O)[C@@H](OC(=O)c3ccccc3)[C@@H]3[C@]4(OC(C)=O)CO[C@@H]4C[C@H](O)[C@@]3(C)C(=O)[C@H](OC(C)=O)C(=C1C)C2(C)C)[C@@H](NC(=O)c1ccccc1)c1ccccc1)C(=O)N[C@H](CCCNC(=N)N)C(=O)N[C@H](CCCNC(=N)N)C(=O)N[C@H](CCCNC(=N)N)C(=O)N[C@H](CCCNC(=N)N)C(N)=O [4b, Taxol C2′ tetraarginine conjugate]
- half-life [1]: 26 h

Structure (SMILES): CC(=O)N[C@H](CSSCCCOC(=O)Oc1ccc(-c2cn3c(=O)c(Cc4ccccc4)nc-3c(Cc3ccccc3)[nH]2)cc1)C(=O)N[C@H](CCCNC(=N)N)C(=O)N[C@H](CCCNC(=N)N)C(=O)N[C@H](CCCNC(=N)N)C(=O)N[C@H](CCCNC(=N)N)C(=O)N[C@H](CCCNC(=N)N)C(=O)N[C@H](CCCNC(=N)N)C(=O)N[C@H](CCCNC(=N)N)C(=O)N[C@H](CCCNC(=N)N)C(N)=O [compound 6, Coelenterazine octaarginine conjugate] (Ac-[dC](X3)[dR][dR][dR][dR][dR][dR][dR][dR]-NH2)
- half-life [1]: 0.117 h

Structure (SMILES): CC(=O)N[C@H](CSSCCCCOC(=O)Oc1ccc2nc(C3=N[C@@H](C(=O)O)CS3)sc2c1)C(=O)N[C@H](CCCNC(=N)N)C(=O)N[C@H](CCCNC(=N)N)C(=O)N[C@H](CCCNC(=N)N)C(=O)N[C@H](CCCNC(=N)N)C(=O)N[C@H](CCCNC(=N)N)C(=O)N[C@H](CCCNC(=N)N)C(=O)N[C@H](CCCNC(=N)N)C(=O)N[C@H](CCCNC(=N)N)C(N)=O [compound 7, Luciferin octaarginine conjugate]
- half-life [1]: 30 h
- calculated area under the curve (total light production) ([14]; intraperitoneal injection, luciferase transgenic mice): similar
- biodistribution after intraperitoneal injection ([14]; transgenic mice ubiquitously expressing Firefly luciferase, equimolar to 5 mg/kg): did not distribute throughout the body, remaining instead near the site of administration
